How the values were obtained:
Format in all cases: functional
NCI-H226 [1] = assay: Growth inhibition of human NCI-H226 cells incubated for 48 hrs by sulforhodamine B assay; conditions: NCI-H226, 48 h
MDA-MB-231 [2] = assay: Growth inhibition of human MDA-MB-231 cells assessed as cell growth at 1 uM incubated for 48 hrs by sulforhodamine B assay relative to control; conditions: MDA-MB-231, 48 h, read-out: Activity
MDA-MB-231 [3] = assay: Growth inhibition of human MDA-MB-231 cells assessed as cell growth at 100 uM incubated for 48 hrs by sulforhodamine B assay relative to control; conditions: MDA-MB-231, 48 h, read-out: Activity
IGROV-1 [4] = assay: Growth inhibition of human IGROV1 cells assessed as cell growth at 100 uM incubated for 48 hrs by sulforhodamine B assay relative to control; conditions: IGROV-1, 48 h, read-out: Activity
MCF7 = assay: Growth inhibition of human MCF7 cells assessed as cell growth at 100 uM incubated for 48 hrs by sulforhodamine B assay relative to control; conditions: MCF7, 48 h, read-out: Activity
UACC-62 [5] = assay: Growth inhibition of human UACC62 cells assessed as cell growth at 100 uM incubated for 48 hrs by sulforhodamine B assay relative to control; conditions: UACC-62, 48 h, read-out: Activity
OVCAR-4 [6] = assay: Growth inhibition of human OVCAR4 cells assessed as cell growth at 0.01 uM incubated for 48 hrs by sulforhodamine B assay relative to control; conditions: OVCAR-4, 48 h, read-out: Activity
HCT-116 = assay: Growth inhibition of human HCT116 cells assessed as cell growth at 0.1 uM incubated for 48 hrs by sulforhodamine B assay relative to control; conditions: HCT-116, 48 h, read-out: Activity
HOP-92 = assay: Growth inhibition of human HOP92 cells assessed as cell growth at 100 uM incubated for 48 hrs by sulforhodamine B assay relative to control; conditions: HOP-92, 48 h, read-out: Activity
SF-295 = assay: Growth inhibition of human SF295 cells incubated for 48 hrs by sulforhodamine B assay; conditions: SF-295, 48 h
NCI-H23 = assay: Growth inhibition of human NCI-H23 cells assessed as cell growth at 0.1 uM incubated for 48 hrs by sulforhodamine B assay relative to control; conditions: NCI-H23, 48 h, read-out: Activity
IGROV-1 [7] = assay: Growth inhibition of human IGROV1 cells assessed as cell growth at 0.01 uM incubated for 48 hrs by sulforhodamine B assay relative to control; conditions: IGROV-1, 48 h, read-out: Activity
SF-539 = assay: Growth inhibition of human SF539 cells assessed as cell growth at 100 uM incubated for 48 hrs by sulforhodamine B assay relative to control; conditions: SF-539, 48 h, read-out: Activity
SK-MEL-5 [8] = assay: Growth inhibition of human SK-MEL-5 cells assessed as cell growth at 100 uM incubated for 48 hrs by sulforhodamine B assay relative to control; conditions: SK-MEL-5, 48 h, read-out: Activity
EKVX [9] = assay: Growth inhibition of human EKVX cells assessed as cell growth at 100 uM incubated for 48 hrs by sulforhodamine B assay relative to control; conditions: read-out: Activity
SK-MEL-5 [10] = assay: Growth inhibition of human SK-MEL-5 cells assessed as cell growth at 0.1 uM incubated for 48 hrs by sulforhodamine B assay relative to control; conditions: SK-MEL-5, 48 h, read-out: Activity
HCT-15 = assay: Growth inhibition of human HCT15 cells incubated for 48 hrs by sulforhodamine B assay; conditions: HCT-15, 48 h
NCI-H226 [11] = assay: Growth inhibition of human NCI-H226 cells assessed as cell growth at 100 uM incubated for 48 hrs by sulforhodamine B assay relative to control; conditions: NCI-H226, 48 h, read-out: Activity
NCI-H322M = assay: Growth inhibition of human NCI-H322M cells assessed as cell growth at 1 uM incubated for 48 hrs by sulforhodamine B assay relative to control; conditions: read-out: Activity
MDA-MB-435 = assay: Growth inhibition of human MDA-MB-435 cells assessed as cell growth at 0.1 uM incubated for 48 hrs by sulforhodamine B assay relative to control; conditions: MDA-MB-435, 48 h, read-out: Activity
NCI-H226 [12] = assay: Growth inhibition of human NCI-H226 cells assessed as cell growth at 0.1 uM incubated for 48 hrs by sulforhodamine B assay relative to control; conditions: NCI-H226, 48 h, read-out: Activity
NCI-H460 = assay: Growth inhibition of human NCI-H460 cells assessed as cell growth at 100 uM incubated for 48 hrs by sulforhodamine B assay relative to control; conditions: NCI-H460, 48 h, read-out: Activity
HT-29 = assay: Growth inhibition of human HT-29 cells assessed as cell growth at 0.1 uM incubated for 48 hrs by sulforhodamine B assay relative to control; conditions: HT-29, 48 h, read-out: Activity
T47D = assay: Growth inhibition of human T47D cells assessed as cell growth at 100 uM incubated for 48 hrs by sulforhodamine B assay relative to control; conditions: read-out: Activity
OVCAR-3 [13] = assay: Growth inhibition of human OVCAR3 cells assessed as cell growth at 0.01 uM incubated for 48 hrs by sulforhodamine B assay relative to control; conditions: OVCAR-3, 48 h, read-out: Activity
SK-MEL-28 = assay: Growth inhibition of human SK-MEL-28 cells incubated for 48 hrs by sulforhodamine B assay; conditions: SK-MEL-28, 48 h
EKVX [14] = assay: Growth inhibition of human EKVX cells assessed as cell growth at 0.01 uM incubated for 48 hrs by sulforhodamine B assay relative to control; conditions: read-out: Activity
OVCAR-4 [15] = assay: Growth inhibition of human OVCAR4 cells assessed as cell growth at 1 uM incubated for 48 hrs by sulforhodamine B assay relative to control; conditions: OVCAR-4, 48 h, read-out: Activity
UACC-62 [16] = assay: Growth inhibition of human UACC62 cells assessed as cell growth at 0.1 uM incubated for 48 hrs by sulforhodamine B assay relative to control; conditions: UACC-62, 48 h, read-out: Activity
UO-31 = assay: Growth inhibition of human UO31 cells assessed as cell growth at 0.1 uM incubated for 48 hrs by sulforhodamine B assay relative to control; conditions: UO-31, 48 h, read-out: Activity
HCC 2998 = assay: Growth inhibition of human HCC2998 cells assessed as cell growth at 0.01 uM incubated for 48 hrs by sulforhodamine B assay relative to control; conditions: HCC 2998, 48 h, read-out: Activity
OVCAR-3 [17] = assay: Growth inhibition of human OVCAR3 cells assessed as cell growth at 0.1 uM incubated for 48 hrs by sulforhodamine B assay relative to control; conditions: OVCAR-3, 48 h, read-out: Activity
[18] = read-out: LC50 (the source's name)
[19] = read-out: pLC50 (the source's name) (converted)

SMILES: c1ccc2[nH]c(-c3ccc(-c4nccc5c4[nH]c4ccccc45)cc3)nc2c1
- GI50 (NCI-H226 [1]; read-out: GI50): 2.27 µM
- CC50 (NCI-H226 [1]; [18]): 9.73 µM
- TGI (NCI-H226 [1]; read-out: TGI): 5.56 µM
- GI50 (NCI-H226 [1]; read-out: pGI50 (converted)): 2.29 µM
- CC50 (NCI-H226 [1]; [19]): 97.7 µM
- TGI (NCI-H226 [1]; read-out: pTGI (converted)): 5.5 µM
- growth at 1 µM (MDA-MB-231 [2]): 99%
- growth at 100 µM (MDA-MB-231 [3]): 54%
- growth at 100 µM (IGROV-1 [4]): 47%
- growth at 100 µM (MCF7): 72%
- growth at 100 µM (UACC-62 [5]): 57%
- growth at 0.01 µM (OVCAR-4 [6]): 90%
- growth at 0.1 µM (HCT-116): 96%
- growth at 100 µM (HOP-92): 76%
- GI50 (SF-295; read-out: GI50): 1.92 µM
- LC50 (SF-295; read-out: LC50): 8.34 µM
- TGI (SF-295; read-out: TGI): 4 µM
- GI50 (SF-295; read-out: pGI50 (converted)): 1.91 µM
- LC50 (SF-295; read-out: pLC50 (converted)): 8.32 µM
- TGI (SF-295; read-out: pTGI (converted)): 3.98 µM
- growth at 0.1 µM (NCI-H23): 93%
- growth at 0.01 µM (IGROV-1 [7]): 99%
- growth at 100 µM (SF-539): 70%
- growth at 100 µM (SK-MEL-5 [8]): 86%
- growth at 100 µM (EKVX [9]): 44%
- growth at 0.1 µM (SK-MEL-5 [10]): 100%
- GI50 (HCT-15; read-out: GI50): 2.22 µM
- LC50 (HCT-15; read-out: LC50): 3 µM
- TGI (HCT-15; read-out: TGI): 5.61 µM
- GI50 (HCT-15; read-out: pGI50 (converted)): 2.24 µM
- LC50 (HCT-15; read-out: pLC50 (converted)): 30.2 µM
- TGI (HCT-15; read-out: pTGI (converted)): 5.62 µM
- growth at 100 µM (NCI-H226 [11]): 50%
- growth at 1 µM (NCI-H322M): 96%
- growth at 0.1 µM (MDA-MB-435): 93%
- growth at 0.1 µM (NCI-H226 [12]): 104%
- growth at 100 µM (NCI-H460): 38%
- growth at 0.1 µM (HT-29): 98%
- growth at 100 µM (T47D): 53%
- growth at 0.01 µM (OVCAR-3 [13]): 101%
- GI50 (SK-MEL-28; read-out: GI50): 1.96 µM
- CC50 (SK-MEL-28; [18]): 7.2 µM
- TGI (SK-MEL-28; read-out: TGI): 3.75 µM
- GI50 (SK-MEL-28; read-out: pGI50 (converted)): 1.95 µM
- CC50 (SK-MEL-28; [19]): 7.24 µM
- TGI (SK-MEL-28; read-out: pTGI (converted)): 3.72 µM
- growth at 0.01 µM (EKVX [14]): 94%
- growth at 1 µM (OVCAR-4 [15]): 83%
- growth at 0.1 µM (UACC-62 [16]): 91%
- growth at 0.1 µM (UO-31): 91%
- growth at 0.01 µM (HCC 2998): 96%
- growth at 0.1 µM (OVCAR-3 [17]): 103%

SMILES: c1ccc2c3c([nH]c2c1)C(c1ccc(C2NCCc4c2[nH]c2ccccc42)cc1)NCC3 (racemic)
- GI50 (NCI-H226 [1]; read-out: GI50): 1.96 µM
- CC50 (NCI-H226 [1]; [18]): 9.1 µM
- TGI (NCI-H226 [1]; read-out: TGI): 4.23 µM
- GI50 (NCI-H226 [1]; read-out: pGI50 (converted)): 1.95 µM
- CC50 (NCI-H226 [1]; [19]): 9.12 µM
- TGI (NCI-H226 [1]; read-out: pTGI (converted)): 4.27 µM
- growth at 1 µM (MDA-MB-231 [2]): 3%
- growth at 100 µM (MDA-MB-231 [3]): -92%
- growth at 100 µM (IGROV-1 [4]): 89%
- growth at 100 µM (MCF7): -74%
- growth at 100 µM (UACC-62 [5]): 93%
- growth at 0.01 µM (OVCAR-4 [6]): 88%
- growth at 0.1 µM (HCT-116): 89%
- growth at 100 µM (HOP-92): 90%
- GI50 (SF-295; read-out: GI50): 1.62 µM
- TGI (SF-295; read-out: TGI): 3.33 µM
- GI50 (SF-295; read-out: pGI50 (converted)): 1.62 µM
- TGI (SF-295; read-out: pTGI (converted)): 3.31 µM
- growth at 0.1 µM (NCI-H23): 88%
- growth at 0.01 µM (IGROV-1 [7]): 99%
- growth at 100 µM (SF-539): 97%
- growth at 100 µM (SK-MEL-5 [8]): 93%
- growth at 100 µM (EKVX [9]): 81%
- growth at 0.1 µM (SK-MEL-5 [10]): 101%
- GI50 (HCT-15; read-out: pGI50 (converted)): 0.427 µM
- TGI (HCT-15; read-out: pTGI (converted)): 1.78 µM
- growth at 100 µM (NCI-H226 [11]): 60%
- growth at 1 µM (NCI-H322M): 65%
- growth at 0.1 µM (MDA-MB-435): 99%
- growth at 0.1 µM (NCI-H226 [12]): 95%
- growth at 100 µM (NCI-H460): 85%
- growth at 0.1 µM (HT-29): 103%
- growth at 100 µM (T47D): -72%
- growth at 0.01 µM (OVCAR-3 [13]): 100%
- GI50 (SK-MEL-28; read-out: GI50): 1.68 µM
- CC50 (SK-MEL-28; [18]): 5.99 µM
- TGI (SK-MEL-28; read-out: TGI): 3.18 µM
- GI50 (SK-MEL-28; read-out: pGI50 (converted)): 1.7 µM
- CC50 (SK-MEL-28; [19]): 6.03 µM
- TGI (SK-MEL-28; read-out: pTGI (converted)): 3.16 µM
- growth at 0.01 µM (EKVX [14]): 88%
- growth at 1 µM (OVCAR-4 [15]): 59%
- growth at 0.1 µM (UACC-62 [16]): 99%
- growth at 0.1 µM (UO-31): 74%
- growth at 0.01 µM (HCC 2998): 91%
- growth at 0.1 µM (OVCAR-3 [17]): 96%
